Target: T1, Human Neutrophil Elastase (HNE) (Homo sapiens, UniProt P08246)
T1 construct: Human Neutrophil Elastase (HNE) purified from serum; purchased Calbiochem 324681; host or cells: natural human material (serum)
T1 sequence (P08246 30-247 limits assumed): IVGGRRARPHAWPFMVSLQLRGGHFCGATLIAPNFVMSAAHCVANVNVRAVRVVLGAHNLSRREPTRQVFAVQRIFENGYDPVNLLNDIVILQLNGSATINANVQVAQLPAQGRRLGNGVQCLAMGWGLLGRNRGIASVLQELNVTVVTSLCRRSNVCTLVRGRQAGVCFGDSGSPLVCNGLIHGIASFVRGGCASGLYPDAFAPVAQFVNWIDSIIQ
Assay: Human Neutrophil Elastase Quenched-FRET Assay
Format: biochemical
Settings: HNE purified from serum; substrate MeOSuc-AAPV-AMC; 15 min preincubation, 30 min incubation at room temperature; read-out: Inhibition of Human Neutrophil Elastase IC50
Procedure: Human Neutrophil Elastase Quenched-FRET Assay
The assay uses Human Neutrophil Elastase (HNE) purified from serum (Calbiochem art. 324681; Ref. Baugh, R. J. et al., 1976, Biochemistry. 15, 836-841). HNE was stored in 50 mM NaOAc, 200 mM NaCl, pH 5.5 with added 30% glycerol at −20° C. The protease substrate used was Elastase Substrate V Fluorogenic, MeOSuc-AAPV-AMC (Calbiochem art. 324740; Ref. Castillo, M. J. et al., 1979, Anal. Biochem. 99, 53-64). The substrate was stored in DMSO at −20° C. The assay additions were as follows: Test compounds and controls were added to black 96-well flat-bottom plates (Greiner 655076), 1 μL in 100% DMSO, followed by 30 μL HNE in assay buffer with 0.01% TritonX-100. The assay buffer constitution was: 100 mM Tris (pH 7.5) and 500 mM NaCl. The enzyme and the compounds were incubated at room temperature for 15 minutes. Then 30 μl substrate in assay buffer was added. The assay was stopped after 30 minutes incubation at room temperature by adding 60 μl stop solution (140 mM acetic acid, 200 mM sodium monochloroacetate, 60 mM sodium acetate, pH 4.3). Fluorescence was measured on a Wallac 1420 Victor 2 instrument at settings: Excitation 380 nm, Emission 460 nm. IC50 values were determined using Xlfit curve fitting using model 205.

Row | IC50 [µM] | SMILES
1 | 0.5 | O=C(NCc1ccc(F)c(F)c1)c1cc2ccccc2n(-c2cccc(C(F)(F)F)c2)c1=O [Example 2.26, N-(3,4-Difluorobenzyl)-2-oxo-1-[3-(trifluoromethyl)phenyl]-1,2-dihydroquinoline-3-carboxamide]
2 | 0.39 | O=C(NCC1COc2ccccc2O1)c1cc2ccccc2n(-c2cccc(C(F)(F)F)c2)c1=O (stereo not drawn) [Example 2.51, N-(2,3-Dihydro-1,4-benzodioxin-2-ylmethyl)-2-oxo-1-[3-(trifluoromethyl)phenyl]-1,2-dihydroquinoline-3-carboxamide]
3 | 0.32 | CC(=O)Nc1ccc(CNC(=O)c2cc3ccccc3n(-c3cccc(C(F)(F)F)c3)c2=O)cc1 [Example 2.66, N-[4-(Acetylamino)benzyl]-2-oxo-1-[3-(trifluoromethyl)phenyl]-1,2-dihydroquinoline-3-carboxamide]

From US20070010551A1, “Quinoline derivatives as neutrophil elastase inhibitors and their use” (priority 2003, published 2007)
